Read-outs that look alike come from different tables or passages of the source. Positions of bridges follow the written chain, without caps; N, C: chain ends. No end group written: not given here.
Tests used:
[1] = system: mouse TRH-R / phosphoinositide pathway in primary hepatocytes; experiment: Stimulation of inositol phosphate formation in hepatocytes from rats after in vivo transfer of the TRH-R cDNA; assay type: cell-based, rat
Experimental: (§1) Primary hepatocytes were exposed to the vectors AdCMV.βgal or AdCMV.mTRH-R. After 24 hr, the cells were labeled for 24 hr with myo-[^3H]inositol (myo-[2-^3H]inositol; 20 Ci/mmol, Amersham Corporation, Arlington Heights, Ill.), incubated (5 min, 37° C.) with 10 mM LiCl, stimulated (60 min, 37° C.) with methyl-TRH. The cells were then lysed, the inositol phosphates were separated by anion-exchange chromatography and the radioactivity counted. The fold stimulation of inositol phosphates formation was calculated as: (dpm in inositol phosphates ×100/dpm in lipids of stimulated cells) (dpm in inositol phosphates ×100/dpm in lipids of unstimulated cells) (35). For each dose of vector, triplicate measurements were made in hepatocytes from two different animals.
(§2) Sprague-Dawley rats (250-300 g, 3 months old, fed ad libitum) were anaesthetized with ketamine-HCl (60 mg/kg) and xylazine (5 mg/kg). The Ad vectors [AdCMV.mTRH-R, AdCMV.βgal, AdCMV.Null (the “Null” vector is similar to the other vectors except that the expression cassette contains the CMV promoter but no recombinant gene) (31)] were administered via the right external jugular vein (5×10^9 pfu, 100 μl 0.9% NaCl). The livers were recovered 5 days later.
Measurement of inositol phosphates formation was identical to that described for FIG. 3. Triplicate measurements were made from three individual animals per condition.

[2] = target: T1, mouse thyrotropin releasing hormone receptor (TRH-R) (Mus musculus, UniProt P21761); assay type: binding
T1 construct: containing the protein-coding region of the mouse TRH-R cDNA, nucleotides 233-1462 of plasmid pBSmTRHR; expressed in transfected cells; host or cells: Primary Sprague-Dawley rat hepatocytes transduced with adenovirus AdCMV.mTRH-R, either in vitro (moi 1-100) or in vivo (i.v., hepatocytes isolated 5 days later)
Experimental: (§3) FIG. 2 illustrates the binding of methylthyrotropin releasing hormone (methyl-TRH) to hepatocytes following adenovirus-mediated in vitro transfer of the TRH-R cDNA. […] Following incubation for 24 hr with the vectors AdCMV.βgal or AdCMV.mTRH-R, the hepatocytes (10^6/well) were incubated for 60 min with [^3H]methyl-TRH (82.5 Ci/mmol, New England Nuclear-Dupont, Boston, Mass.) or [^3H]methyl-TRH plus excess unlabeled methyl-TRH (Sigma, St. Louis, Mo.). Free ligand was removed by aspirating the medium and washing the cells 5 times with 2 ml (4° C.) Hanks balanced salt solution. Cell associated radioactivity was measured by dissolving the cells with 1 ml of 0.4 N NaOH and counting. Specific binding of the [^3H]methyl-TRH was calculated as: [(dpm of [^3H]methyl-TRH)-(dpM [^3 H]methyl-TRH in the presence of unlabeled methyl-TRH)] (34). For each dose of the vector, triplicate measurements were made in hepatocytes from two different animals. The number of TRH-R receptor sites was calculated assuming a one-to-one stoichiometry of ligand to receptor and a homogeneous distribution of TRH-Rs.

[3] = target: T1, mouse thyrotropin releasing hormone receptor (TRH-R); experiment: [3H]methyl-TRH binding to primary hepatocytes from rats after in vivo adenovirus-mediated transfer of the TRH-R cDNA; parameters: species or system rat
Experimental: as §3, §2
FIGS. 4 and 5 are Northern analyses. Liver RNA (10 μg/lane) was evaluated with a mouse TRH-R cDNA probe (FIG. 4, lanes 1 and 2) or, as a positive control, […] cDNA (FIG. 5, lanes 3 and 4). The sizes of the transcripts are indicated. Lanes 1 and 3 (FIG. 4 and FIG. 5, respectively) are animals receiving AdCMV. βgal. […] The analysis of [^3H]methyl-TRH binding was identical to that described for FIG. 2. Triplicate measurements were made from three individual animals per condition.

[4] = system: mouse TRH-R / phosphoinositide pathway in primary hepatocytes; experiment: Stimulation of inositol phosphate formation in hepatocytes after in vitro transfer of the TRH-R cDNA; assay type: cell-based, rat
Source text: The replication-deficient recombinant adenovirus vectors are all E1a^−, partial E1b^−, partial E3^− based on adenovirus type 5, in which an expression cassette containing a promoter, driving the expression of a recombinant gene, is inserted at the site of the El deletion. AdCMV.mTRH-R contains an expression cassette with the cytomegalovirus early intermediate promoter/enhancer (CMV) followed by the mouse thyrotropin releasing hormone receptor (TRH-R) cDNA (30). AdCMV.βgal carries the CMV promoter and the E.coli LacZ gene [encoding β-galactosidase (βgal)] (31). The adenovirus vectors were prepared, purified, and titered as previously described (32,33). […]
as §1, with “For each dose of vector, triplicate measurements were made in hepatocytes from two different animals.” left out

Sprague-Dawley rats = experiment: Modulation of serum glucose in rats after in vivo transfer of the TRH-R cDNA to the liver; parameters: species or system rat
Experimental: as §2
The vectors AdCMV.mTRH-R or AdCMV.Null (5×10^9 pfu), or saline (0.9%) as negative control (all in 100 μl) were administered to rats as described above. Five days later, the animals were anaesthetized by methoxyflurane (Pitman-Moore, Mundelein, Ill.) inhalation and the left and right external jugular veins were cannulated. After 15 min to permit stabilization, a 15 min baseline period was started, during which serum samples for glucose levels were obtained every 5 min. At “0 time” methyl-TRH (500 μg in 100 μl) or saline (0.9%, 100 μl ) was administered in one cannula and the serum samples obtained from the other cannula every 5 min for 55 min. Serum glucose levels were determined by colormetric assay (Sigma Diagnostics, St. Louis, Mo.).
The baseline glucose levels were determined for each animal as an average from −15 to 0 before administration of methyl-TRH or saline. The data are presented as the absolute change from the average baseline serum glucose level (mM) using each individual animal as its own control, and averaging the values at each time point for each group of animals. AdCMV.mTRH-R (IV)/TRH=vector administered intravenously at day 0, methyl-TRH administered at day 5, n=6 animals; AdCMV.mTRH-R(IP)/TRH=vector administered via the portal vein at day 0, methyl-TRH administered at day 5, n=5; AdCMV.Null(IV)/TRH=vector administered intravenously at day 0, methyl-TRH at day 5, n=6; saline/TRH=saline administered instead of vector at day 0, methyl-TRH at day 5, n=6; and naive/saline=nothing administered at day 0, saline at day 5, n=5. The data is presented as the mean for all animals in the group at each time point. The normal range for serum glucose Sprague-Dawley rats is 2.5 6.7 mM(36).
FIG. 9 illustrates the average change in serum glucose levels from baseline. The average change in serum glucose levels from baseline was determined for each time point from 15 to 55 min after administration of methyl-TRH or saline on day 5. The data are presented as mean±standard deviation. All statistical comparisons were made using the two-tailed Student's t-test.

[5] = hepatocytes uninfected or infected with control vector AdCMV.βgal
[6] = read-out: Kd of methyl-TRH binding
[7] = hepatocytes from AdCMV.mTRH-R infected animals, not shown

T1 sequence (P21761 whole entry): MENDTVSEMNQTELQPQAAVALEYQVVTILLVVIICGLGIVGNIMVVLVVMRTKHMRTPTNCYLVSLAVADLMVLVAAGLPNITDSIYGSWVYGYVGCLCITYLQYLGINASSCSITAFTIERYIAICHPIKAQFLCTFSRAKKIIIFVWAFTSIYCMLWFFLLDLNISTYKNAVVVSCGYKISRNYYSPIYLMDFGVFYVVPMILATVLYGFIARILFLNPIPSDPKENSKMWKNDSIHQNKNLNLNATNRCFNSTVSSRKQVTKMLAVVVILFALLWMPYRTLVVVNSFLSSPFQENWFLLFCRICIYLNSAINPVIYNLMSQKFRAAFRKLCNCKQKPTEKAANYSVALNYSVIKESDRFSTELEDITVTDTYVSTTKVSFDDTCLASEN

## NC(=O)[C@@H]1CCCN1C(=O)[C@H](Cc1cnc[nH]1)NC(=O)[C@@H]1CCC(=O)N1 [TRH, thyrotropin-releasing hormone]
[1]; hepatocytes from animals infected 5 days previously with AdCMV.mTRH-R
  fold stimulation of inositol phosphate formation above controls of no added methyl-TRH: 16.9±1.8 fold
[1]; hepatocytes from uninfected animals and animals infected in vivo with AdCMV.βgal
  stimulation of inositol phosphate formation: no stimulation of inositol phosphate formation

## Cn1cnc(C[C@H](NC(=O)[C@@H]2CCC(=O)N2)C(=O)N2CCC[C@H]2C(N)=O)c1 [methyl-TRH, methylthyrotropin releasing hormone]
[2]; hepatocytes infected with AdCMV.mTRH-R, not shown
  internalization of ligand-receptor complex: internalized
[2]; [5]
  specific binding of methyl-TRH: no specific binding
[2]; [6]
  Kd: 3.18 ± 0.39 nM
[3]; [7]
  internalization of methyl-TRH complex: underwent internalization
[3]; hepatocytes from animals receiving AdCMV.mTRH-R in vivo
  methyl-TRH specific binding: high levels of methyl-TRH specific binding
[3]; hepatocytes from naive animals or animals receiving control vector AdCMV.βgal
  methyl-TRH specific binding: no specific methyl-TRH binding
[3]; [6]
  Kd: 2.51 ± 0.32 nM
[4]; hepatocytes infected in vitro with AdCMV.mTRH-R, dependent on vector dose
  inositol phosphates formation: increased amounts of inositol phosphates
[4]; [5]
  inositol phosphates formation: no increase in inositol phosphates
[1]; [7]
  period of increase in formation of inositol phosphates after addition: at least 1 hr
Sprague-Dawley rats; methyl-TRH 500 μg IV, rats given AdCMV.mTRH-R intravenously 5 days previously
  increase in blood glucose over baseline from 15 to 55 min after administration: 1.73 ± 0.26 mM
Sprague-Dawley rats; methyl-TRH IV, control rats given saline (similar with AdCMV.Null) 5 days previously
  change in blood glucose over baseline: small increase in blood glucose
Sprague-Dawley rats; methyl-TRH IV, rats given AdCMV.mTRH-R intravenously 5 days previously
  time of peak rise in blood glucose after administration: 15 min
Sprague-Dawley rats; methyl-TRH IV, rats given AdCMV.mTRH-R intravenously 5 days previously, experiment terminated at 55 min
  time for which elevation in blood glucose was maintained: at least 55 min
Sprague-Dawley rats; methyl-TRH IV, rats given AdCMV.mTRH-R via the portal vein 5 days previously
  rise in blood glucose compared with intravenous vector group: superimposable

## [Arg^8]vasopressin (CYFQNCPRG-NH2; disulfide 1-6; ends not checked; UniProt P01185 20-28, looked up) [positive control for rise in blood glucose]
Sprague-Dawley rats; positive control, intravenous route, 55 min evaluation, not shown
  change in blood glucose: an increase in blood glucose, followed by a decrease
